What was measured:
Human mGlu2 = Human mGlu2 (Homo sapiens, UniProt Q14416); experiment: mGlu receptor in vitro assay, human mGlu2; type: cell-based
Human mGlu3 = Human mGlu3 (Homo sapiens, UniProt Q14832); experiment: mGlu receptor in vitro assay, human mGlu3; type: cell-based
Experimental: Human Embryonic Kidney (HEK-293) cell lines co-expressing rat mGlu receptors 2, 3, 4, 6, 7 or 8 and G protein-coupled inwardly-rectifying potassium (GIRK) channels were grown in Growth Media containing 45% DMEM, 45% F-12, 10% FBS, 20 mM HEPES, 2 mM L-glutamine, antibiotic/antimycotic, non-essential amino acids, 700 μg/mL G418, and 0.6 μg/ml puromycin at 37° C. in the presence of 5% CO2. […] All cell culture reagents were purchased from Invitrogen Corp. (Carlsbad, CA) unless otherwise noted. Calcium assays were used to assess activity of compounds at mGlu1 and mGlu5, as previously described in Engers et al (J. Med. Chem. 2009, 52, 4115-4118). Calcium assays at mGlu3 were performed as described for mGlu5 with the exception that TREx293 mGlu3 Gα15 cells were treated with tetracycline at 20 ng/mL for 20 h prior to assay.
Briefly, cells were plated into 384-well, black-walled, clear-bottomed poly-D-lysine-coated plates at a density of 15,000 cells/20 μL/well in DMEM containing 10% dialyzed FBS, 20 mM HEPES, and 100 units/mL penicillin/streptomycin (assay media). Plated cells were incubated overnight at 37° C. in the presence of 5% CO2. The following day, the medium was exchanged from the cells to assay buffer [Hanks' balanced salt solution (Invitrogen) containing 20 mM HEPES, pH 7.3] using an ELX405 microplate washer (BioTek), leaving 20 μL/well, followed by the addition of 20 μL/well FluoZin2-AM (330 nM final concentration) indicator dye (Invitrogen; prepared as a stock in DMSO and mixed in a 1:1 ratio with Pluronic acid F-127) in assay buffer. Cells were incubated for 1 h at room temperature, and the dye exchanged to assay buffer using an ELX405, leaving 20 μL/well. Test compounds were diluted to 2 times their final desired concentration in assay buffer (0.3% DMSO final concentration). Agonists were diluted in thallium buffer [125 mM sodium bicarbonate (added fresh the morning of the experiment), 1 mM magnesium sulfate, 1.8 mM calcium sulfate, 5 mM glucose, 12 mM thallium sulfate, and 10 mM HEPES, pH 7.3] at 5 times the final concentration to be assayed. Cell plates and compound plates were loaded onto a kinetic imaging plate reader (FDSS 6000 or 7000; Hamamatsu Corporation, Bridgewater, NJ). Appropriate baseline readings were taken (10 images at 1 Hz; excitation, 470±20 nm; emission, 540±30 nm) and test compounds were added in a 20 μL volume and incubated for approximately 2.5 min before the addition of 10 μL of thallium buffer with or without agonist. After the addition of agonist, data were collected for approximately an additional 2.5 min. Data were analyzed using Excel (Microsoft Corp, Redmond, WA). The slope of the fluorescence increase beginning 5 s after thallium/agonist addition and ending 15 s after thallium/agonist addition was calculated, corrected to vehicle and maximal agonist control slope values, and plotted in using either XLfit (ID Business Solutions Ltd) or Prism software (GraphPad Software, San Diego, CA) to generate concentration-response curves. Potencies were calculated from fits using a four-point parameter logistic equation. For concentration-response curve experiments, compounds were serially diluted 1:3 into 10-point concentration response curves and were transferred to daughter plates using an Echo acoustic plate reformatter (Labcyte, Sunnyvale, CA). Test compounds were applied and followed by EC20 concentrations of glutamate.

Human mGlu3, sequence (Q14832 23-879): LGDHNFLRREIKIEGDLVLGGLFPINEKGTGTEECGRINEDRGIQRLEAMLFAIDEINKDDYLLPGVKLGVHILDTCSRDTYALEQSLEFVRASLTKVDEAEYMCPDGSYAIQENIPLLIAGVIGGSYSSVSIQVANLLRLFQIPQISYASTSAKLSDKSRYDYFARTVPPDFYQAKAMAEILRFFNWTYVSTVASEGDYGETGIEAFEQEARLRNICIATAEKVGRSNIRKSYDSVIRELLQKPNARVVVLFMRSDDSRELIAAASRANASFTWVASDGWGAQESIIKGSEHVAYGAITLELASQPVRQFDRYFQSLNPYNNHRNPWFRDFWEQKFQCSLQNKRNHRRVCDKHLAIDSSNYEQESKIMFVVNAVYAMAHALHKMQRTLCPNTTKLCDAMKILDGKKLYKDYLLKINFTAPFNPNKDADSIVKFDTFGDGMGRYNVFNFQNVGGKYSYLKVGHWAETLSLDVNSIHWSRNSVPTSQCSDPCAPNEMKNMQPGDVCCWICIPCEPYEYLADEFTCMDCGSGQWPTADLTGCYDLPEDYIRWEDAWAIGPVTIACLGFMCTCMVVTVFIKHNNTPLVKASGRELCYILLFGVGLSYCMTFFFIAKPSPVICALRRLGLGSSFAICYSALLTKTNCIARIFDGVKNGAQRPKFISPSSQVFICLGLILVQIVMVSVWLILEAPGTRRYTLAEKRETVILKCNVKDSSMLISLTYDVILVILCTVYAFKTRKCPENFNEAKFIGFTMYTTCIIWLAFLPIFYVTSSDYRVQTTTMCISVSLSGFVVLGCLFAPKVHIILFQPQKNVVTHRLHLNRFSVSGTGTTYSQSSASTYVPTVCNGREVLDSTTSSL
Human mGlu2, sequence (Q14416 19-872): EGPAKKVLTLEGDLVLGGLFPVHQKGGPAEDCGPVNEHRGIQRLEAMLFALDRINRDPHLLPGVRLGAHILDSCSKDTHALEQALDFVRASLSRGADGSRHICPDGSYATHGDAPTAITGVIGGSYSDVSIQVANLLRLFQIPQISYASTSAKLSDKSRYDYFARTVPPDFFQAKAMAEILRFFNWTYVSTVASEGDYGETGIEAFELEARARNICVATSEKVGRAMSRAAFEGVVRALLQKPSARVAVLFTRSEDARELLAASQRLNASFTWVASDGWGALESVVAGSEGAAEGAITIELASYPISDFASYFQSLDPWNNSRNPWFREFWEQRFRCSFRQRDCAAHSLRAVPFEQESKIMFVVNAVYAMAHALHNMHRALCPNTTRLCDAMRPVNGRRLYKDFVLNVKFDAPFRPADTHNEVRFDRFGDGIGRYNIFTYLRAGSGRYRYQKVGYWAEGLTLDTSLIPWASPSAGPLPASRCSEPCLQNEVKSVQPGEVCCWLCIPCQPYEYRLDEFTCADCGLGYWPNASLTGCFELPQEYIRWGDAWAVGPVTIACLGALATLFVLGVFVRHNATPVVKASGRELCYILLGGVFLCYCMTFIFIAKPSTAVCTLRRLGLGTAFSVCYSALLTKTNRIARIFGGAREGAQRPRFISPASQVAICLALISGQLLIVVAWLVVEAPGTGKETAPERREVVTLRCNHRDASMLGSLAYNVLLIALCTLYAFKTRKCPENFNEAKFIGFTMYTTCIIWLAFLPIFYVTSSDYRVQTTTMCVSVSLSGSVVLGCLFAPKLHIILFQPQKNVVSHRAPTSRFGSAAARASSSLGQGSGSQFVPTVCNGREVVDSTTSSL

`COc1c(C(=O)O)cccc1-c1cnc(COc2ccc(C(=O)C3CC3)c(O)c2C)cn1` [compound 78, 3-(5-((4-(Cyclopropanecarbonyl)-3-hydroxy-2-methylphenoxy)methyl)pyrazin-2-yl)-2-methoxybenzoic acid] showed an EC50 (Human mGlu2) of 41 nM and an EC50 (Human mGlu3) of 1930 nM.
In the case of `Cc1c(OCCCCSc2cccc(C(=O)O)c2)ccc(C(=O)CC(C)(C)C)c1O` [compound 80, 3-((4-(4-(3,3-Dimethylbutanoyl)-3-hydroxy-2-methylphenoxy)butyl)thio)benzoic acid], the EC50 (Human mGlu2) is reported as 228 nM and the EC50 (Human mGlu3) is reported as 461 nM.
With `Cc1c(SCCCCSc2cccc(C(=O)O)c2)ccc(C(=O)CC(C)(C)C)c1O` [compound 82, 3-{4-[4-(3,3-Dimethylbutanoyl)-3-hydroxy-2-methylphenylthio]butylthio}benzoic acid] the EC50 (Human mGlu2) was 423 nM and the EC50 (Human mGlu3) was 3000 nM.
`COc1cc(C(=O)O)cc(-c2cnc(COc3ccc(C(=O)CC(C)(C)C)c(O)c3C)cn2)c1` [compound 129, 3-(5-((4-(3,3-Dimethylbutanoyl)-3-hydroxy-2-methylphenoxy)methyl)pyrazin-2-yl)-5-methoxybenzoic acid] gave an EC50 (Human mGlu2) of 729 nM and an EC50 (Human mGlu3) of 364 nM.
Work on `COc1ccc(C(=O)O)cc1OCCCCOc1ccc(C(=O)CC(C)(C)C)c(O)c1-c1ccccc1` [compound 131, 3-(4-((5-(3,3-Dimethylbutanoyl)-6-hydroxy-[1,1′-biphenyl]-2-yl)oxy)butoxy)-4-methoxybenzoic acid] yielded an EC50 (Human mGlu2) of 231 nM and an EC50 (Human mGlu3) of 1050 nM.
For `Cc1c(OCc2nnc(-c3cccc(C(=O)O)c3)o2)ccc(C(=O)CC(C)(C)C)c1O` [compound 134, 3-(5-((4-(3,3-Dimethylbutanoyl)-3-hydroxy-2-methylphenoxy)methyl)-1,3,4-oxadiazol-2-yl)benzoic acid], the EC50 (Human mGlu2) was 243 nM and the EC50 (Human mGlu3) was 327 nM.
With `Cc1c(OCc2cnc(-c3ccc(C(=O)O)c(F)c3)cn2)ccc(C(=O)CC(C)(C)C)c1O` [compound 137, 4-(5-((4-(3,3-Dimethylbutanoyl)-3-hydroxy-2-methylphenoxy)methyl)pyrazin-2-yl)-2-fluorobenzoic acid] the EC50 (Human mGlu2) was 913 nM and the EC50 (Human mGlu3) was 3950 nM.
`Cc1c(OCc2cnc(-c3ccc(Cl)c(C(=O)O)c3)cn2)ccc(C(=O)CC(C)(C)C)c1O` [compound 138, 2-Chloro-5-(5-((4-(3,3-Dimethylbutanoyl)-3-hydroxy-2-methylphenoxy)methyl)pyrazin-2-yl)benzoic acid] was tested, and the EC50 (Human mGlu2) was 445 nM and the EC50 (Human mGlu3) was 104 nM.
With `Cc1c(OCc2cnc(-c3cc(F)cc(C(=O)O)c3)cn2)ccc(C(=O)CC(C)(C)C)c1O` [compound 139, 3-(5-((4-(3,3-Dimethylbutanoyl)-3-hydroxy-2-methylphenoxy)methyl)pyrazin-2-yl)-5-fluorobenzoic acid] the EC50 (Human mGlu2) was 1750 nM and the EC50 (Human mGlu3) was 1080 nM.
`Cc1c(OCc2cnc(-c3ccc(C(=O)O)s3)cn2)ccc(C(=O)CC(C)(C)C)c1O` [compound 141, 5-(5-((4-(3,3-Dimethylbutanoyl)-3-hydroxy-2-methylphenoxy)methyl)pyrazin-2-yl)thiophene-2-carboxylic acid] gave an EC50 (Human mGlu2) of 547 nM and an EC50 (Human mGlu3) of 603 nM.
For `Cc1c(OCc2cnc(-c3ccc(C(=O)O)cc3Cl)cn2)ccc(C(=O)CC(C)(C)C)c1O` [compound 143, 3-Chloro-4-(5-((4-(3,3-Dimethylbutanoyl)-3-hydroxy-2-methylphenoxy)methyl)pyrazin-2-yl)benzoic acid], the EC50 (Human mGlu2) was 291 nM and the EC50 (Human mGlu3) was 580 nM.
For `Cc1cc(C(=O)O)ccc1-c1cnc(COc2ccc(C(=O)CC(C)(C)C)c(O)c2C)cn1` [compound 144, 4-(5-{[4-(3,3-Dimethylbutanoyl)-3-hydroxy-2-methylphenoxy]methyl}pyrazin-2-yl)-3-methylbenzoic acid], the EC50 (Human mGlu2) was 112 nM and the EC50 (Human mGlu3) was 89 nM.
In the case of `Cc1c(OCc2cnc(-c3cccc(O)c3)cn2)ccc(C(=O)CC(C)(C)C)c1O` [compound 145, 1-(2-Hydroxy-4-{[5-(3-hydroxyphenyl)pyrazin-2-yl]methoxy}-3-methylphenyl)-3,3-dimethylbutan-1-one], the EC50 (Human mGlu2) is reported as > 10000 nM and the EC50 (Human mGlu3) is reported as > 10000 nM.
With `COc1c(C(=O)O)cccc1-c1cnc(COc2ccc3c(c2C)OC(C)(C)CC3=O)cn1` [compound 147, 2-Methoxy-3-(5-(((2,2,8-trimethyl-4-oxochroman-7-yl)oxy)methyl)pyrazin-2-yl)benzoic acid] the EC50 (Human mGlu2) was > 30000 nM and the EC50 (Human mGlu3) was > 30000 nM.
In the case of `Cc1c(OCc2cnc(-c3cncc(C(=O)O)c3)cn2)ccc(C(=O)CC(C)(C)C)c1O` [compound 148, 5-(5-((4-(3,3-Dimethylbutanoyl)-3-hydroxy-2-methylphenoxy)methyl)pyrazin-2-yl)nicotinic acid], the EC50 (Human mGlu2) is reported as > 10000 nM and the EC50 (Human mGlu3) is reported as > 30000 nM.
For `COc1ccc(C(=O)O)c(-c2cnc(COc3ccc(C#CCO)c(C)c3C)cn2)c1` [compound 150], the EC50 (Human mGlu2) was > 10000 nM and the EC50 (Human mGlu3) was > 30000 nM.
For `COc1ccc(C(=O)O)c(-c2cnc(COc3ccc(C#CCOCC(O)CO)c(C)c3C)cn2)c1` (stereo not drawn) [compound 151], the EC50 (Human mGlu2) was > 30000 nM and the EC50 (Human mGlu3) was > 30000 nM.
Work on `COc1c(C(=O)O)cccc1-c1ccc(COc2ccc(C(=O)CC(C)(C)C)c(O)c2C)nc1` [compound 152, 3-(6-((4-(3,3-Dimethylbutanoyl)-3-hydroxy-2-methylphenoxy)methyl)pyridin-3-yl)-2-methoxybenzoic acid] yielded an EC50 (Human mGlu2) of 130 nM and an EC50 (Human mGlu3) of 74 nM.
Work on `COc1c(C(=O)O)cccc1-c1ccc(COc2ccc(C(=O)CC(C)(C)C)c(O)c2C)cn1` [compound 153, 3-(5-((4-(3,3-Dimethylbutanoyl)-3-hydroxy-2-methylphenoxy)methyl)pyridin-2-yl)-2-methoxybenzoic acid] yielded an EC50 (Human mGlu2) of 69 nM and an EC50 (Human mGlu3) of 133 nM.
In the case of `COc1c(C(=O)O)cccc1-c1ccc(COc2ccc(C(=O)CC(C)(C)C)c(O)c2C)nn1` [compound 154, 3-(6-((4-(3,3-Dimethylbutanoyl)-3-hydroxy-2-methylphenoxy)methyl)pyridazin-3-yl)-2-methoxybenzoic acid], the EC50 (Human mGlu2) is reported as 281 nM and the EC50 (Human mGlu3) is reported as 184 nM.
Compound `COc1ccc(C(=O)O)cc1-c1noc(COc2ccc(C(=O)CC(C)(C)C)c(O)c2C)n1` [compound 156, 3-(5-((4-(3,3-Dimethylbutanoyl)-3-hydroxy-2-methylphenoxy)methyl)-1,2,4-oxadiazol-3-yl)-4-methoxybenzoic acid] has an EC50 (Human mGlu2) of 78 nM and an EC50 (Human mGlu3) of 117 nM.
`Cc1c(C(=O)O)cccc1-c1noc(COc2ccc(C(=O)CC(C)(C)C)c(O)c2C)n1` [compound 157, 3-(5-((4-(3,3-Dimethylbutanoyl)-3-hydroxy-2-methylphenoxy)methyl)-1,2,4-oxadiazol-3-yl)-2-methylbenzoic acid] was tested, and the EC50 (Human mGlu2) was 48 nM and the EC50 (Human mGlu3) was 148 nM.
`COc1c(C(=O)O)cccc1-c1noc(COc2ccc(C(=O)CC(C)(C)C)c(O)c2C)n1` [compound 158, 3-(5-((4-(3,3-Dimethylbutanoyl)-3-hydroxy-2-methylphenoxy)methyl)-1,2,4-oxadiazol-3-yl)-2-methoxybenzoic acid] showed an EC50 (Human mGlu2) of 53 nM and an EC50 (Human mGlu3) of 104 nM.
For `COc1c(C(=O)O)cccc1-c1cnc(COc2ccc(C(=O)CC(C)(C)C)c(O)c2C)nc1` [compound 159, 3-(2-((4-(3,3-Dimethylbutanoyl)-3-hydroxy-2-methylphenoxy)methyl)pyrimidin-5-yl)-2-methoxybenzoic acid], the EC50 (Human mGlu2) was 44 nM and the EC50 (Human mGlu3) was 85 nM.

Reference: patent US20250179000A1 (Sanford Burnham Prebys Medical Discovery Institute, priority 2021, published 2025)
